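Results reflect a 48-hour exposure of cells in 96-well plates to compound at five concentrations. At the TGI there is no net growth.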
Columns and labels:
Assay in all cases: NCI anticancer screen, dose series, 48 h
[1] = system: U251 CNS
[2] = system: K-562 leukemia
[3] = system: LOX IMVI melanoma
[4] = system: NCI-H522 lung
[5] = system: NCI-H226 lung
[6] = system: RXF-631 renal
[7] = system: M19-MEL melanoma
[8] = system: SK-OV-3 ovarian
[9] = system: KM20L2 colon
[10] = system: SF-295 CNS
[11] = system: SF-268 CNS
[12] = system: OVCAR-4 ovarian
[13] = system: SNB-75 CNS
[14] = system: SK-MEL-2 melanoma
[15] = system: DMS 114 small cell lung
[16] = system: MOLT-4 leukemia
[17] = system: SR leukemia
[18] = system: OVCAR-8 ovarian
[19] = system: LXFL 529 NSCLC
[20] = system: SNB-19 CNS
[21] = system: TK-10 renal
[22] = system: HT29 colon
[23] = system: RPMI-8226 leukemia
[24] = system: HCT-15 colon
[25] = system: A498 renal
[26] = system: KM12 colon
[27] = system: HCT-116 colon
[28] = system: HOP-92 NSCLC
[29] = system: NCI-H460 lung
[30] = system: NCI-H23 lung
[31] = system: HL-60(TB) leukemia
[32] = system: XF 498 CNS
[33] = system: SK-MEL-28 melanoma
[34] = system: CAKI-1 renal
[35] = system: COLO 205 colon
[36] = system: MALME-3M melanoma
[37] = system: EKVX NSCLC
[38] = system: HOP-18 NSCLC
[39] = system: OVCAR-5 ovarian
[40] = system: SNB-78 CNS
[41] = system: RXF 393 renal
[42] = system: UO-31 renal
[43] = system: A549 NSCLC
[44] = system: UACC-257 melanoma
[45] = system: ACHN renal
[46] = system: HOP-62 NSCLC
[47] = system: OVCAR-3 ovarian
[48] = system: UACC-62 melanoma
[49] = system: HCC-2998 colon
[50] = system: DLD-1 colon
[51] = system: IGROV1 ovarian
[52] = system: 786-0 renal
[53] = system: SN12C renal
[54] = system: SF-539 CNS
[55] = system: CCRF-CEM leukemia
[56] = system: M14 melanoma
[57] = system: SK-MEL-5 melanoma

## CC(C)=CCC/C(C)=C/CC/C(C)=C/C1CCC(=O)C1(C)C (configuration not stated)
[1]
  TGI: 32.7 µM
[2]
  TGI: 38 µM
[3]
  TGI: 28.9 µM
[4]
  TGI: 29 µM
[5]
  TGI: 29.4 µM
[6]
  TGI: > 100 µM
[7]
  TGI: 38 µM
[8]
  TGI: 81 µM
[9]
  TGI: 31.9 µM
[10]
  TGI: 33 µM
[11]
  TGI: 33.6 µM
[12]
  TGI: 66 µM
[13]
  TGI: 81.9 µM
[14]
  TGI: 34.1 µM
[15]
  TGI: 28.2 µM
[16]
  TGI: 41 µM
[17]
  TGI: 40.8 µM
[18]
  TGI: 38.7 µM
[19]
  TGI: 31.1 µM
[20]
  TGI: 65.2 µM
[21]
  TGI: > 100 µM
[22]
  TGI: 32.4 µM
[23]
  TGI: 42.4 µM
[24]
  TGI: 28.9 µM
[25]
  TGI: 36.9 µM
[26]
  TGI: 32.7 µM
[27]
  TGI: 30.7 µM
[28]
  TGI: 51.7 µM
[29]
  TGI: 32.6 µM
[30]
  TGI: 41.1 µM
[31]
  TGI: 27 µM
[32]
  TGI: 32.3 µM
[33]
  TGI: 54 µM
[34]
  TGI: 46.8 µM
[35]
  TGI: 30.8 µM
[36]
  TGI: 37.5 µM
[37]
  TGI: 42.4 µM
[38]
  TGI: 63.1 µM
[39]
  TGI: 39.7 µM
[40]
  TGI: 53.4 µM
[41]
  TGI: 37.5 µM
[42]
  TGI: 31.7 µM
[43]
  TGI: 77.6 µM
[44]
  TGI: 42.7 µM
[45]
  TGI: 30.1 µM
[46]
  TGI: 69.6 µM
[47]
  TGI: 32.5 µM
[48]
  TGI: 50.6 µM
[49]
  TGI: 38.2 µM
[50]
  TGI: 32.6 µM
[51]
  TGI: 39.4 µM
[52]
  TGI: 32.2 µM
[53]
  TGI: 30.9 µM
[54]
  TGI: 38.9 µM
[55]
  TGI: 35.4 µM
[56]
  TGI: 42.5 µM
[57]
  TGI: 29.3 µM
